# Measured values as given in US20260034111A1, “NOVEL HETEROCYCLES AS sPLA2-X INHIBITORS” (Cayman Chemical Company Incorporated, priority 2022, published 2026).
# Where a name gives a salt, the structure may show the parent alone. Read-outs that look alike come from different tables or passages of the source.
# Legend:
# Format in all cases: biochemical
# Details in all cases: class symbols
# [1] = molecular target: T1, recombinant human sPLA2-IIA enzyme (Homo sapiens, UniProt P14555); assay: sPLA2-IIA enzyme inhibition assay (thio-PC substrate, DTNB detection, absorbance 410 nm)
# T1 construct: made in house; host or cells: E. coli
# T1 sequence (P14555 21-144): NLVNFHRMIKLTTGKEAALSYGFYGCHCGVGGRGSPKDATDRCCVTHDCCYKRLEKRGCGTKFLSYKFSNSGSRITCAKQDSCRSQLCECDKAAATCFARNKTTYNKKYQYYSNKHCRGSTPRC
# Text: (§1) Screening Compounds for Inhibition of sPLA2-X, sPLA2-V, and sPLA2-IIA Enzyme Activity
# (§2) These sPLA2 enzymes hydrolyze the sn-2 acyl chains of glycerophospholipids, resulting in the release of a free fatty acid and a lysophospholipid. In the case of the thio-PC substrate, this enzymatic hydrolysis results in a free sulfhydryl group remaining on the lysophospholipid. This free sulfhydryl reacts with DTNB to produce the chromogenic product 5-nitro-2-thiobenzoic acid (TNB) which can be quantitated by absorbance at 410 nm. The amount of TNB produced reflects the hydrolytic activity of the enzyme.
# (§3) The recombinant human sPLA2 groups IIA, V, and X enzymes were expressed in E. coli and purified to >90% purity by standard biochemical methods.
# (§4) Procedure of Enzyme Inhibition for sPLA2-X • 1. […] Dilute the test compounds in 100% DMSO by half-log steps in a 96-well dilution plate using columns 1-11 (one compound per row). Column 12 contains DMSO alone with no compound. • 3. Prepare a 3.5 mM thio-PC substrate solution by drying down 7.2 mg of stock thio-PC in ethanol under a gentle stream of N2 gas. When dry, add 4 mL assay buffer (25 mM Tris, pH7.4; 100 mM KCl; 10 mM CaCl2; 0.1% Triton X-100) and warm in a 37° C. water bath for 20 minutes with intermittent vortexing. • 4. Prepare an “enzyme containing” reaction mix with the following components: 20.4 mL assay buffer; 2 mL DTNB (20 mM in 800 mM Tris, pH8.0); and 11.8 mg recombinant human sPLA2-X enzyme (>95% pure) diluted to a total of 0.8 mL assay buffer. • 5. Prepare a “no enzyme” reaction mix with the following components: 477 μL assay buffer and 45 μL DTNB. • 6. Dispense 58 μL “no enzyme” reaction mix into each of 8 wells (columns 23 and 24, rows M-P). • 7. Dispense 58 μL “enzyme containing” reaction mix into all remaining wells on the plate. • 8. From the 96-well compound dilution plate, add 2 μL from each well for each compound to each of 4 wells with “enzyme containing” reaction mix. Columns 23 and 24 on the assay plate will contain only DMSO (vehicle control). […] After compound addition, mix the contents of each well to ensure that the DMSO is evenly distributed in the well. • 9. Cover the plate and incubate in the dark at room temperature for 15 minutes. • 10. Add 10 μL of thio-PC substrate to all wells. The final concentration of thio-PC in the reactions is 0.5 mM. • 11. Cover the plate and incubate in the dark at room temperature for 30 minutes. • 12. Measure the absorbance of all wells at 410 nm. • 13. Determine the mean absorbance of the “no enzyme” wells. Subtract this value from the absorbance values determined for all other wells (these are now background corrected data). • 14. […] Procedure of Enzyme Inhibition for sPLA2-V • 1. […] Dilute the test compounds in 100% DMSO by half-log steps in a 96-well dilution plate using columns 1-11. Column 12 contains DMSO alone with no compound. • 3. Prepare a 3.5 mM thio-PC substrate solution by drying down 7.2 mg of stock thio-PC in ethanol under a gentle stream of N2 gas. When dry, add 4 mL assay buffer (25 mM Tris, pH7.4; 100 mM KCl; 10 mM CaCl2; 0.1% Triton X-100) and warm in a 37° C. water bath for 20 minutes with intermittent vortexing. • 4. Prepare an “enzyme containing” reaction mix with the following components: 20.4 mL assay buffer; 2 mL DTNB (20 mM in 800 mM Tris, pH8.0); and 12 mg recombinant human sPLA2-V enzyme (>95% pure) diluted to a total of 0.8 mL assay buffer. • 5. Prepare a “no enzyme” reaction mix with the following components: 477 μL assay buffer and […]. • 6. Dispense 58 μL “no enzyme” reaction mix into each of 8 wells (columns 23 and 24, rows M-P). • 7. Dispense 58 μL “enzyme containing” reaction mix into all remaining wells on the plate. • 8. From the 96-well compound dilution plate, add 2 μL from each well for each compound to each of 4 wells with “enzyme containing” reaction mix. Columns 23 and 24 on the assay plate will contain only DMSO (vehicle control).
# [2] = molecular target: T2, recombinant human sPLA2-V enzyme (Homo sapiens, UniProt P39877); assay: sPLA2-V enzyme inhibition assay (thio-PC substrate, DTNB detection, absorbance 410 nm)
# T2 construct: made in house; host or cells: E. coli
# T2 sequence (P39877 21-138): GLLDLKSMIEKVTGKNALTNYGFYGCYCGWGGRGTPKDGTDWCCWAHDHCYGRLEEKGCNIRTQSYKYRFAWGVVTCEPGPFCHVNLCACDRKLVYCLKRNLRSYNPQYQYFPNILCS
# Text: as §1, §2, §3, §4
# sPLA2-X protein = molecular target: T3, sPLA2-X protein (Homo sapiens, UniProt O15496); assay: sPLA2-X enzyme inhibition assay (thio-PC substrate, DTNB detection, absorbance 410 nm); parameters: made in house; host or cells: E. coli
# T3 sequence (O15496 43-165): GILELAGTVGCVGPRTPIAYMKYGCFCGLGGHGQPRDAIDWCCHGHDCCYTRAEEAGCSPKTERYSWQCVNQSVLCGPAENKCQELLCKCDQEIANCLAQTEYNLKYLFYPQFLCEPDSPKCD
# Text: as §1, §2, §3, §4
# [3] = read-out: sPLA2 Type IIa Inhibition (IC50; nM)
# [4] = read-out: sPLA2 Type V Inhibition (IC50; nM)
# [5] = read-out: sPLA2 Type X Inhibition (IC50; nM)
Compound,"IC50 [1, 3] [nM]","IC50 [2, 4] [nM]",IC50 (sPLA2-X protein; [5]) [nM],IC50 ([1]; sPLA2 Type IIa Inhibition (IC50; nM)) [nM],IC50 ([2]; sPLA2 Type V Inhibition (IC50; nM)) [nM],IC50 (sPLA2-X protein; sPLA2 Type X Inhibition (IC50; nM)) [nM]
"NC(=O)c1cc2ccc(OC(F)(F)F)cc2n1-c1ccc2occ(C(=O)O)c2c1 [Compound 20, 5-(2-carbamoyl-6-(trifluoromethoxy)-1H-indol-1-yl)benzofuran-3-carboxylic acid]",> 1000,> 5000,> 200,,,
"NC(=O)c1cc2ccc(OC(F)(F)F)cc2n1-c1cccc(C[C@H](N)C(=O)O)c1 [Compound 24, (S)-2-amino-3-(3-(2-carbamoyl-6-(trifluoromethoxy)-1H-indol-1-yl)phenyl)propanoic acid TFA salt]",> 1000,> 5000,> 200,,,
"NC(=O)c1cc2ccc(OC(F)(F)F)cc2n1-c1cccc(C2CC2C(=O)O)n1 (single isomer, unassigned) [Compound 28d, cis-(−)-2-(6-(2-carbamoyl-6-(trifluoromethoxy)-1H-indol-1-yl)pyridin-2-yl)cyclopropane-1-carboxylic acid]",> 1000,1500 to 5000,50 to 200,,,
"CNC(=O)c1cc2ccc(OC(F)(F)F)cc2n1-c1cccc(CCC(=O)O)c1 [Compound 14, 3-(3-(2-(methylcarbamoyl)-6-(trifluoromethoxy)-1H-indol-1-yl)phenyl)propanoic acid]",> 1000,> 5000,> 200,,,
"NC(=O)c1cc2ccc(OC(F)(F)F)cc2n1-c1cccc(N2CC[C@H]2C(=O)O)n1 [Compound 69, (S)-1-(6-(2-carbamoyl-6-(trifluoromethoxy)-1H-indol-1-yl)pyridin-2-yl)azetidine-2-carboxylic acid]",> 1000,> 5000,> 200,,,
"NC(=O)c1cc2ccc(OC(F)(F)F)cc2n1-c1ccc2c(c1)OCC2CC(=O)O (stereo not drawn) [Compound 9, 2-(6-(2-carbamoyl-6-(trifluoromethoxy)-1H-indol-1-yl)-2,3-dihydrobenzofuran-3-yl)acetic acid]",> 1000,> 5000,> 200,,,
"CC(C)(CC(=O)O)c1cccc(-n2c(C(N)=O)cc3ccc(OC(F)(F)F)cc32)n1 [Compound 62, 3-(6-(2-carbamoyl-6-(trifluoromethoxy)-1H-indol-1-yl)pyridin-2-yl)-3-methylbutanoic acid]",> 1000,1500 to 5000,20 to 50,,,
"NC(=O)c1[se]c2ccc(OC(F)(F)F)cc2c1-c1cccc(C2CC2C(=O)O)n1 (stereo not drawn) [Compound 57, trans-2-(6-(2-carbamoyl-5-(trifluoromethoxy)benzo[b]selenophen-3-yl)pyridin-2-yl)cyclopropane-1-carboxylic acid]",,,,> 1000,> 5000,50 to 200
"NC(=O)c1cc2ccc(OC(F)(F)F)cc2n1-c1ccc2occ(CC(=O)O)c2c1 [Compound 12, 2-(5-(2-carbamoyl-6-(trifluoromethoxy)-1H-indol-1-yl)benzofuran-3-yl)acetic acid]",> 1000,> 5000,50 to 200,,,
"NC(=O)c1cc2ccc(OC(F)(F)F)cc2n1-c1cccc(C2(CC(=O)O)CC2)n1 [Compound 59, 2-(1-(6-(2-carbamoyl-6-(trifluoromethoxy)-1H-indol-1-yl)pyridin-2-yl)cyclopropyl)acetic acid]",> 1000,> 5000,< 20,,,
"NC(=O)c1cc2ccc(OC(F)(F)F)cc2n1-c1cccc([C@H](N)CC(=O)O)c1 [Compound 42, (R)-3-amino-3-(3-(2-carbamoyl-6-(trifluoromethoxy)-1H-indol-1-yl)phenyl)propanoic acid]",> 1000,> 5000,> 200,,,
"CC(C)(C)OC(=O)NCc1cccc(-n2c(C(N)=O)cc3ccc(OC(F)(F)F)cc32)n1 [Compound 26, tert-butyl ((6-(2-carbamoyl-6-(trifluoromethoxy)-1H-indol-1-yl)pyridin-2-yl)methyl)carbamate]",> 1000,> 5000,> 200,,,
"NC(=O)c1sc2ccc(OC(F)(F)F)cc2c1-c1ccc2c(c1)C(CC(=O)O)CO2 (stereo not drawn) [Compound 7, 2-(5-(2-carbamoyl-5-(trifluoromethoxy)benzo[b]thiophen-3-yl)-2,3-dihydrobenzofuran-3-yl)acetic acid]",> 1000,> 5000,> 200,,,

# More lines, main results first:
"IC50 [1, 3] [nM]","IC50 [2, 4] [nM]",IC50 (sPLA2-X protein; [5]) [nM],Compound,IC50 ([1]; sPLA2 Type IIa Inhibition (IC50; nM)) [nM],IC50 ([2]; sPLA2 Type V Inhibition (IC50; nM)) [nM],IC50 (sPLA2-X protein; sPLA2 Type X Inhibition (IC50; nM)) [nM]
200 to 500,< 500,< 20,"NC(=O)c1cc2ccc(OC(F)(F)F)cc2n1-c1cccc(SC2(C(=O)O)CCC2)c1 [Compound 4, 1-((3-(2-carbamoyl-6-(trifluoromethoxy)-1H-indol-1-yl)phenyl)thio)cyclobutane-1-carboxylic acid]",,,
500 to 1000,1500 to 5000,< 20,"CC(C)(Cc1cccc(-n2c(C(N)=O)cc3ccc(OC(F)(F)F)cc32)c1)C(=O)O [Compound 3, 3-(3-(2-carbamoyl-6-(trifluoromethoxy)-1H-indol-1-yl)phenyl)-2,2-dimethylpropanoic acid]",,,
> 1000,> 5000,> 200,"CC(=O)NCc1cccc(-n2c(C(N)=O)cc3ccc(OC(F)(F)F)cc32)n1 [Compound 32, 1-(6-(acetamidomethyl)pyridin-2-yl)-6-(trifluoromethoxy)-1H-indole-2-carboxamide]",,,
> 1000,> 5000,< 20,"NC(=O)c1cc2ccc(OC(F)(F)F)cc2n1-c1cccc([C@H]2C[C@@H]2C(=O)O)n1 (relative stereo) [Compound 28a, trans-(−)-2-(6-(2-carbamoyl-6-(trifluoromethoxy)-1H-indol-1-yl)pyridin-2-yl)cyclopropane-1-carboxylic acid]",,,
200 to 500,1500 to 5000,20 to 50,"NC(=O)c1cc2ccc(OC(F)(F)F)cc2n1-c1cccc(C2CC2C(=O)O)n1 (racemic) [Compound 28c, cis-(rac)-2-(6-(2-carbamoyl-6-(trifluoromethoxy)-1H-indol-1-yl)pyridin-2-yl)cyclopropane-1-carboxylic acid]",,,
< 200,> 5000,< 20,"NC(=O)c1cc2ccc(OC(F)(F)F)cc2n1-c1cccc(C2CC2C(=O)O)n1 (single isomer, unassigned) [Compound 28e, cis-(+)-2-(6-(2-carbamoyl-6-(trifluoromethoxy)-1H-indol-1-yl)pyridin-2-yl)cyclopropane-1-carboxylic acid]",,,
